Source: ChEMBL document CHEMBL1201862, “PubChem BioAssay data set” (2004)
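The compound was tested at five concentrations on cells cultured in 96-well plates, with a 48-hour exposure period. GI50: concentration for 50% inhibition of growth.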 Active and inactive are the calls of the source. Cut-off read from the data, not from the text of the source: active = GI50 up to about 1.1 µM and inactive = higher.

Experiments:
Assay in all cases: growth of human tumour cells (NCI), 48 h
786-0 = tested on: 786-0
A549 = tested on: A549
DMS-273 = tested on: DMS-273
HCT-116 = tested on: HCT-116
HOP-92 = tested on: HOP-92
K562 = tested on: K562
M14 = tested on: M14
Malme-3M = tested on: Malme-3M
NCI-H226 = tested on: NCI-H226
NCI-H23 = tested on: NCI-H23
OVCAR-3 = tested on: OVCAR-3
SF-539 = tested on: SF-539
SK-MEL-2 = tested on: SK-MEL-2
SN12C = tested on: SN12C
SW-620 = tested on: SW-620
MOLT-4 = tested on: MOLT-4
SK-MEL-5 = tested on: SK-MEL-5
DU-145 = tested on: DU-145
MCF7 = tested on: MCF7
MDA-N = tested on: MDA-N

Compound	GI50 (786-0)	GI50 (A549)	GI50 (DMS-273)	GI50 (HCT-116)	GI50 (HOP-92)	GI50 (K562)	GI50 (M14)	GI50 (Malme-3M)	GI50 (NCI-H226)	GI50 (NCI-H23)	GI50 (OVCAR-3)	GI50 (SF-539)	GI50 (SK-MEL-2)	GI50 (SN12C)	GI50 (SW-620)	GI50 (MOLT-4)	GI50 (SK-MEL-5)	GI50 (DU-145)	GI50 (MCF7)	GI50 (MDA-N)
COc1ccc(OC)c(/C=N/N=C(\N)NO)c1	21.4 µM (inactive)	8.22 µM (inactive)	6.31 µM (inactive)	24.5 µM (inactive)	23.3 µM (inactive)	6.81 µM (inactive)	20.1 µM (inactive)	36.8 µM (inactive)	16.6 µM (inactive)	27 µM (inactive)	23.8 µM (inactive)	7.62 µM (inactive)	42.3 µM (inactive)	31.4 µM (inactive)	24.3 µM (inactive)					
c1ccc(C(c2ccccc2)c2ccncc2)cc1	> 100 µM (inactive)	> 100 µM (inactive)	> 100 µM (inactive)	> 100 µM (inactive)		> 100 µM (inactive)	> 100 µM (inactive)	> 100 µM (inactive)	> 100 µM (inactive)	> 100 µM (inactive)	> 100 µM (inactive)	> 100 µM (inactive)	> 100 µM (inactive)	> 100 µM (inactive)	> 100 µM (inactive)	> 100 µM (inactive)	> 100 µM (inactive)			
OC1(C(Sc2ccccc2)Sc2ccccc2)CCCCCC1	22.4 µM (inactive)	28 µM (inactive)	27.8 µM (inactive)	27.8 µM (inactive)	28.6 µM (inactive)	> 10 µM (inactive)	18.7 µM (inactive)			35.8 µM (inactive)	20.9 µM (inactive)	21.9 µM (inactive)	18.1 µM (inactive)	16.2 µM (inactive)	26.2 µM (inactive)	28.6 µM (inactive)	16.1 µM (inactive)			
Cc1cc(C)nc(NS(=O)(=O)c2ccc(Nc3c4ccccc4nc4c(C(=O)Nc5ccc(S(N)(=O)=O)cc5)cccc34)cc2)n1	> 100 µM (inactive)	> 100 µM (inactive)	92.5 µM (inactive)	83.8 µM (inactive)	30.9 µM (inactive)	72.4 µM (inactive)	71.6 µM (inactive)	> 100 µM (inactive)		68.5 µM (inactive)	66.5 µM (inactive)	> 100 µM (inactive)	> 100 µM (inactive)	> 100 µM (inactive)	> 100 µM (inactive)	> 100 µM (inactive)	> 100 µM (inactive)			
CC(O)C(NC(=O)c1ccccc1)C(=O)N(Cc1ccccc1)Cc1ccccc1 (configuration not stated)	> 100 µM (inactive)	80.9 µM (inactive)	> 100 µM (inactive)		75.9 µM (inactive)	97.9 µM (inactive)	> 100 µM (inactive)	> 100 µM (inactive)	> 100 µM (inactive)	> 100 µM (inactive)	> 100 µM (inactive)	> 100 µM (inactive)	> 100 µM (inactive)	> 100 µM (inactive)	> 100 µM (inactive)	61.4 µM (inactive)	60 µM (inactive)			
CC(=O)OC12C(C)=C(C)C(=O)N1c1ccccc1N2C(C)=O (configuration not stated)	> 100 µM (inactive)	> 100 µM (inactive)	> 100 µM (inactive)	> 100 µM (inactive)	> 100 µM (inactive)	> 100 µM (inactive)	> 100 µM (inactive)		> 100 µM (inactive)	> 100 µM (inactive)	> 100 µM (inactive)		> 100 µM (inactive)		> 100 µM (inactive)	> 100 µM (inactive)	> 100 µM (inactive)			
CC(C)OC(=O)NNc1cccc(Cl)c1	> 100 µM (inactive)	> 100 µM (inactive)		> 100 µM (inactive)	> 100 µM (inactive)	47.3 µM (inactive)	> 100 µM (inactive)	> 100 µM (inactive)	> 100 µM (inactive)	> 100 µM (inactive)	> 100 µM (inactive)	> 100 µM (inactive)	19.4 µM (inactive)	> 100 µM (inactive)	> 100 µM (inactive)	> 100 µM (inactive)	> 100 µM (inactive)	> 100 µM (inactive)	> 100 µM (inactive)	> 100 µM (inactive)
CC[C@]12C=CCN3CC[C@@]4(c5cc(N=O)c(OC)cc5N(C)[C@H]4[C@@](O)(C(=O)OC)[C@@H]1OC(C)=O)[C@@H]32	42.9 µM (inactive)	58.9 µM (inactive)		50.7 µM (inactive)	> 100 µM (inactive)	46.7 µM (inactive)	89.5 µM (inactive)	71.3 µM (inactive)	> 100 µM (inactive)	> 100 µM (inactive)	48 µM (inactive)	27.6 µM (inactive)	18 µM (inactive)	34.3 µM (inactive)	31.6 µM (inactive)	35.6 µM (inactive)	37.9 µM (inactive)	> 100 µM (inactive)	24.5 µM (inactive)	20.1 µM (inactive)
Oc1cc2c(cc1O)-c1[nH]ncc1CC2	39.6 µM (inactive)	42.4 µM (inactive)	42.1 µM (inactive)	51.1 µM (inactive)	14.4 µM (inactive)	32.7 µM (inactive)	72.4 µM (inactive)	59.8 µM (inactive)	18.6 µM (inactive)	35.4 µM (inactive)		22.4 µM (inactive)	64.9 µM (inactive)	49 µM (inactive)	35.4 µM (inactive)	22.4 µM (inactive)	35.1 µM (inactive)			
CCOC(=O)NC/C=C/CO	> 100 µM (inactive)	> 100 µM (inactive)	> 100 µM (inactive)	> 100 µM (inactive)		> 100 µM (inactive)	> 100 µM (inactive)	> 100 µM (inactive)	> 100 µM (inactive)			> 100 µM (inactive)	> 100 µM (inactive)	> 100 µM (inactive)	> 100 µM (inactive)	> 100 µM (inactive)	> 100 µM (inactive)			
CC(Oc1ccc(OCC2CCCCC2)cc1)C(=O)O (configuration not stated)	> 100 µM (inactive)	> 100 µM (inactive)	> 100 µM (inactive)	> 100 µM (inactive)		> 100 µM (inactive)	> 100 µM (inactive)	> 100 µM (inactive)	> 100 µM (inactive)	> 100 µM (inactive)	> 100 µM (inactive)	> 100 µM (inactive)	> 100 µM (inactive)	> 100 µM (inactive)	> 100 µM (inactive)	> 100 µM (inactive)	> 100 µM (inactive)			
CCc1cccc(C(C)C)c1NC(=O)CCl	> 100 µM (inactive)	> 100 µM (inactive)	> 100 µM (inactive)	> 100 µM (inactive)	> 100 µM (inactive)	> 100 µM (inactive)	46.3 µM (inactive)	> 100 µM (inactive)	> 100 µM (inactive)	> 100 µM (inactive)	> 100 µM (inactive)	> 100 µM (inactive)	> 100 µM (inactive)	> 100 µM (inactive)	> 100 µM (inactive)	> 100 µM (inactive)				
Cc1c(-c2coc(-c3ccc(Cl)cc3)n2)c(=O)n(-c2ccccc2)n1C	> 100 µM (inactive)	> 100 µM (inactive)	> 100 µM (inactive)	> 100 µM (inactive)	> 100 µM (inactive)		> 100 µM (inactive)	> 100 µM (inactive)	> 100 µM (inactive)	> 100 µM (inactive)	93.3 µM (inactive)	> 100 µM (inactive)	> 100 µM (inactive)	> 100 µM (inactive)		> 100 µM (inactive)	> 100 µM (inactive)			
CC1OC(CC2C=CCc3c(O)c4c(c(O)c32)C(=O)c2ccccc2C4=O)CC(NC(=O)C(F)(F)F)C1O (configuration not stated)	11.1 µM (inactive)		6.32 µM (inactive)	3.13 µM (inactive)	2.92 µM (inactive)	4.85 µM (inactive)	4.29 µM (inactive)	3.12 µM (inactive)	13.7 µM (inactive)	7.59 µM (inactive)	6.76 µM (inactive)	3.95 µM (inactive)	6.87 µM (inactive)	5.5 µM (inactive)	14.3 µM (inactive)	7.21 µM (inactive)	11.2 µM (inactive)			
OCc1ccn2c1[C@@H](O)CC2	> 100 µM (inactive)	> 100 µM (inactive)		> 100 µM (inactive)	> 100 µM (inactive)	> 100 µM (inactive)	> 100 µM (inactive)	> 100 µM (inactive)	> 100 µM (inactive)	> 100 µM (inactive)	> 100 µM (inactive)	> 100 µM (inactive)	> 100 µM (inactive)	> 100 µM (inactive)	> 100 µM (inactive)	> 100 µM (inactive)	> 100 µM (inactive)	> 100 µM (inactive)	> 100 µM (inactive)	> 100 µM (inactive)
CCC1(O)C=CC(=O)C=C1	18.4 µM (inactive)	31.6 µM (inactive)		36.1 µM (inactive)	31.8 µM (inactive)	39.5 µM (inactive)	17.5 µM (inactive)	8.77 µM (inactive)	25.5 µM (inactive)	24.9 µM (inactive)	27.5 µM (inactive)	0.0422 µM (active)	31.1 µM (inactive)	32.9 µM (inactive)	36.7 µM (inactive)	47.3 µM (inactive)	31.8 µM (inactive)	23.9 µM (inactive)	24 µM (inactive)	28.8 µM (inactive)
COc1cc(/C=C/c2ccncc2)cc(OC)c1OC	72.4 µM (inactive)	> 100 µM (inactive)	96.6 µM (inactive)	> 100 µM (inactive)	29.9 µM (inactive)	52.7 µM (inactive)	> 100 µM (inactive)	> 100 µM (inactive)	> 100 µM (inactive)	> 100 µM (inactive)	94.2 µM (inactive)	> 100 µM (inactive)		96.2 µM (inactive)	> 100 µM (inactive)	65.8 µM (inactive)	63.2 µM (inactive)			
